The data set in a line: Blood-to-plasma partition ratio in human blood. The class given is in vitro ADME. The note with it: human whole blood (K2EDTA as anticoagulant), control compounds, 37°C, 60 minutes incubation, LC/MS/MS, read-out: Blood-to-plasma partition ratio (BPR). The method, then:
In vitro measurement of blood-to-plasma partition was conducted in human blood (K2EDTA as anticoagulant) obtained from a commercial source (BioReclamation IVT, Liverpool, NY). Hematocrit (the ratio of volume of red blood cells to total blood) was measured by centrifugation of the whole blood at 3000 rpm for 10 minutes using microhematocrit capillary tubes. Control plasma was prepared from a portion of the whole blood by centrifugation at 3000g for 10 minutes. Both whole blood and control plasma samples were warmed at 37°C in a water bath for 30 minutes. Subsequently, the test compounds (1 µM in the final concentration) and controls [methazolamide (BPR ∼1) and metoprolol (BPR […])] were spiked into blood and incubated at 37°C (5% CO2) with shaking at 200 rpm for 60 minutes along with control samples. After incubation for 60 minutes, the incubated whole blood was removed from the water bath, and the plasma was separated by centrifugation at 1000g for 10 minutes. Aliquots of the control plasma were also removed. […] Test compounds and internal standard response (or peak area) ratio in whole blood and its resulting plasma were measured using liquid chromatography with tandem mass spectrometry (LC/MS/MS). Blood-to-plasma partition was calculated by ratio of mass spectrometric response of compounds in blood samples after 60 minutes of incubation to mass spectrometric response in plasma samples.

Molecules are shown by their SMILES.

For the compound `CC(=O)/N=c1/sc(S(N)(=O)=O)nn1C` [methazolamide], the blood plasma ratio at 60 min was ~1.
With `COCCc1ccc(OCC(O)CNC(C)C)cc1` (centres unmarked) [metoprolol] the figure was ~40.
